pIC50: −log10 of the molar value. Read-outs that look alike come from different tables or passages of the source. One block for each compound: values may come before it.
Tests used:
[1] = target: T1, TXA2 synthase (Homo sapiens, UniProt P24557); assay: Thromboxane Synthase Inhibition, In Vitro; format: biochemical; settings: human platelet microsomes; for inhibition at 0.1 µM: at 10^-7 M
T1 construct: using microsomal fractions from human platelets as enzyme source; from tissue; host or cells: human platelets, microsomal fraction
T1 sequence (P24557 1-533): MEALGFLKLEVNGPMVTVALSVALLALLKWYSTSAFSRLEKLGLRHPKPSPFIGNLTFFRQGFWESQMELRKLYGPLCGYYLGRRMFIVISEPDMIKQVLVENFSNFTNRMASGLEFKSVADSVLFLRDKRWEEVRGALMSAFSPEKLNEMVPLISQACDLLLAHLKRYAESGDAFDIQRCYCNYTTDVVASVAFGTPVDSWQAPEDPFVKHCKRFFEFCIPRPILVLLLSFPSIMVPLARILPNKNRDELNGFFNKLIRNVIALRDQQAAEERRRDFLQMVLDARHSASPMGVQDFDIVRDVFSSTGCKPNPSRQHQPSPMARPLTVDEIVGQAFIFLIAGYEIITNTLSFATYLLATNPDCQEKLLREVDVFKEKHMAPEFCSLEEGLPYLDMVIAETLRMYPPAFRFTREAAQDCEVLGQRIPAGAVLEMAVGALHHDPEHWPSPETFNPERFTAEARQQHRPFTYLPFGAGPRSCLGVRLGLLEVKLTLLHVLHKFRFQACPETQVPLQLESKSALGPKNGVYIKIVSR
Method: TXA2 synthase activity is measured by following the conversion of ^14 C-prostaglandin endoperoxide (PGH2) to ^14 C-thromboxane A2 (TXA2) using microsomal fractions from human platelets as enzyme source. In the aqueous incubation medium, the TXA2 decomposes rapidly into TXB2. The amount of TXA2 synthase is adjusted so that under the conditions of the assay approximately 80-90% of the substrate, PGH2, is converted to product in control tubes. To prepare ^14 C--PGH2, ^14 C--AA (50-60 mCi/mmole; Rose Chem.) is incubated with sheep seminal vesicular gland microsomes for 1.5 minutes at 37° C. and then the ^14 C--PGH2 is extracted with diethylether, purified on columns of Sephadex LH-20 or silicic acid, and stored in acetone at -70° C. Incubations are done as follows. Sufficient ^14 C--PGH2 to yield a final substrate concentration of 10 μM (30,000 cpm) is added to the incubation tubes and then the acetone is removed under nitrogen. The tubes are placed in an ice bath and then 215 μl of ice cold phosphate buffered saline, 10 μl of ethanol (control) or of test drug in ethanol, and 25 μl of the microsomal suspension are added with mixing in that order as rapidly as possible. The tubes are incubated at 22° C. for 2 minutes, the reaction is stopped and then the radioactive products and the uncoverted PGH2 are extracted and analyzed by thin layer chromatography. […] The amount of ^14 C--PGH2 converted to products was used as a measure of TXA2 synthase activity. Inhibitors were tested initially at a final concentration of 100 μM. Results obtained with representative compounds of the present invention in this assay are summarized hereafter in Table I.

[2] = system: SRS-A-induced constriction of the guinea pig ileum; assay: Guinea Pig Ileum, In Vitro (inhibition of SRS-A-induced constriction); format: cell-based; settings: Cavia porcellus; for pIC50: SRS-A-induced constriction, in vitro, read-out: Guinea Pig Ileum, IC50
Method: The guinea pig ileum bioassay system has been described by Orange and Austen, Adv. Immunol. […] A 1.5 cm segment is removed from animals weighing 300-400 g. and suspended in an organ bath containing 10 ml. of Tyrodes solution with 10^-6 M atropine sulfate and 10^-6 M pyrilamine maleate. […] The SRS-A utilized in this screen is obtained by challenging chopped lung fragments from actively sensitized guinea pigs with egg albumin, in vitro. A dose-response curve to SRS-A challenge is established for the ileum. […] The drug concentration which inhibits, by 50%, the SRS-A-induced constriction of the guinea pig ileum is determined.

[3] = system: LTD4-induced blood pressure changes and arrhythmias; assay: Leukotriene D4 (LTD4) Induced Arrhythmias in Conscious Guinea Pigs; format: in vivo, guinea pig; settings: 10 mg/kg iv, 5 minutes before LTD4; for Peak Hypertension (Δmm Hg): saline control 30 ± 4; for % Arrhythmias: saline control 33 ± 4; for Peak Hypotension (Δmm Hg): saline control -45 ± 4
Method: Male Hartley guinea pigs are anesthetized with sodium pentobarbital and prepared for monitoring direct blood pressure and injecting drugs intravenously by catheterizing the right carotid artery and right jugular vein. Blood pressure, heart rate, and Lead II ECG are monitored in the conscious animal 24 hours later.
Intravenous administration of LTD4 (2.5 μg/kg) is associated with an increase in blood pressure lasting approximately 1-2 minutes followed by a decrease lasting approximately 5-15 minutes. Abnormal beats consisting of premature ventricular contractions, ST elevation or depression, atrioventricular conduction block, or dissociated p waves begin during the rise in blood pressure; the peak effect occurs approximately 40 seconds after LTD4. The percent of abnormal beats was quantitated by determining the number present during the first 2 minutes after injection and calculating the percent increase above the control level. During the hypotensive response, the animal usually collapses during the 2nd or 3rd minute after LTD4 and regains posture approximately 10 minutes after LTD4.
Test compounds were administered 5 minutes before the LTD4 challenge and effects on blood pressure and arrhythmias were monitored.

[4] = target: T2, PAF receptor (dog platelets) (Canis lupus familiaris, UniProt A0A8I3NSH0); assay: PAF Radioreceptor Binding Assay; settings: 3H-PAF
T2 construct: followed by 2×10^7 dog platelets; from tissue; host or cells: dog platelets, washed, intact
T2 sequence (A0A8I3NSH0 1-343): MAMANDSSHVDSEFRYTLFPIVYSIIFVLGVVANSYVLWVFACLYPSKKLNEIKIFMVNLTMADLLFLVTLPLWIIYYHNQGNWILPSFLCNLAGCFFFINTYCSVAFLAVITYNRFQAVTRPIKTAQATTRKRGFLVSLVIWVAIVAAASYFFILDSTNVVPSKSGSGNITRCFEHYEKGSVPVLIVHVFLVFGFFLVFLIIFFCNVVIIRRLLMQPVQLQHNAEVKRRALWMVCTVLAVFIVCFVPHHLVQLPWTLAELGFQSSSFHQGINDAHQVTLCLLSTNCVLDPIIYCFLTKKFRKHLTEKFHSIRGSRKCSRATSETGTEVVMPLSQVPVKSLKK
Method: Platelet rich plasma is prepared by centrifugation of citrate-treated dog blood. Acidification to pH 6.5 with 0.15M citric acid and centrifugation for 10 minutes at 1000 g yields a platelet pellet which is then washed by resuspension in EDTA-Phosphate Buffered Saline (PBS) and recentrifuged. The washed platelet preparation is adjusted to 2×10^7 platelets/50 μl in 0.1% BSA-PBS.
To a […] microfuge tube containing 50 μl silicone oil (specific gravity 1.023) is added buffer, PAF standard or analog, or an extract to bring the aqueous volume to 150 μl. 50 μl of ^3 H-PAF (10,000 cpm, 45 Ci/mM) is added followed by 2×10^7 dog platelets. After mixing, incubating for 10 minutes at room temperature, and centrifuging for 1 minute in a Beckman Microfuge B (8000 g), the pellet is removed by clipping off the tip of the tube, solubilizing the platelets with 200 μl of 50% methanol, and counting in 10 ml of Aquasol. […] Results obtained with representative compounds of the present invention in this assay are summarized hereinafter in Table I.

[5] = target: T3, Δ^5 -Lipoxygenase (Rattus norvegicus, UniProt P12527); assay: Δ^5 -Lipoxygenase Inhibition; format: biochemical; settings: at 10^-5 M; RBL-1 cell supernatant
T3 construct: using rat basophil leukemia cells (RBL-1 cells) as the enzyme source; endogenous in cells; host or cells: RBL-1 (rat basophil leukemia) cells, 49,300×g supernatant of homogenate
T3 sequence (P12527 1-673): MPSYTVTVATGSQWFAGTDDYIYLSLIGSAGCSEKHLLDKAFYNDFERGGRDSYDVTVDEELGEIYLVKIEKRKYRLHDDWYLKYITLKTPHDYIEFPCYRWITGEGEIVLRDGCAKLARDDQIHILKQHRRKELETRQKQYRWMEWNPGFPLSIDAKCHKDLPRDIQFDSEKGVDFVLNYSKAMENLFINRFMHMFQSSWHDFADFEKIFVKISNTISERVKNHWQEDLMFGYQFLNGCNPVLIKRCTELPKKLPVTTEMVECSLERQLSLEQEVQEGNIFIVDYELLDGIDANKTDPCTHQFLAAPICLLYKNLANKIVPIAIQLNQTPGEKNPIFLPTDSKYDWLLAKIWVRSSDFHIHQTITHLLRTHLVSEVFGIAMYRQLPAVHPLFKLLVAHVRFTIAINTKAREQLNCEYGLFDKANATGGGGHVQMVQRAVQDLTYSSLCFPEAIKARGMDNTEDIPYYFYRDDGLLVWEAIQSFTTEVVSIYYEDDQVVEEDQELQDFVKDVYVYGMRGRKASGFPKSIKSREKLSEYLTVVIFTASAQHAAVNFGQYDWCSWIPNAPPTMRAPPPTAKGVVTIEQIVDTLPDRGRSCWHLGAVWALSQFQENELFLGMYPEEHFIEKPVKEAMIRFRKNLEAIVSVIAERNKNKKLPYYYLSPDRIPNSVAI
Method: Δ^5 -Lipoxygenase inhibition was measured by following the conversion of ^14 C-arachidonic acid to ^14 C-5-HETE, using rat basophil leukemia cells (RBL-1 cells) as the enzyme source. These cells were maintained in stationary stock cultures and grown in spinner cultures prior to isolation by centrifugation at 4° C. at 1,500×g for 10 minutes. The cells were washed three times at 4° C. with 0.05M Tris HCl (ph 7.2) containing 1 mM EDTA, 14 μM indomethacin and 0.9% NaCl. They were then homogenized at 0°-4° C. using a glass/glass homogenizer in 0.05M Tris-HCl (pH 7.2) containing 1 mM EDTA and 14 μM indomethacin. The homogenate was then centrifuged at 49,300×g for 20 minutes (0°-4° C.) and the resulting supernatant frozen in small aliquots in a dry ice/acetone bath prior to storage at -80° C. Under these conditions, the enzyme was stable to freezing and thawing and to preincubation for 10 minutes at 30° C.
For enzyme assay, 100-200 μl of enzyme was incubated in the presence and absence of test compound (prepared in DMSO) for 10 minutes at 30° C. in 0.05M Tris-HCl buffer (pH 7.2) containing 1 mM glutathione, 2 mM CaCl2, 14 μM indomethacin and 0.25 and 0.5 mM EDTA (final volume 400 μl). The final DMSO concentration in these assays was 4%. The assay was initiated by the addition of 100 μl ^14 C-arachidonic acid (58 mCi/mmole) and incubations were carried out for 10 minutes at 37° C. in a shaking water bath. The reactions were stopped by the simultaneous addition of 4.0 ml of diethylether and 100 μl of 1.0 m citric acid, while the tubes were vigorously vortexed. The ^14 C-5-HETE generated by the enzyme was extracted into the acidified ether layer which was separated from the aqueous layer by freezing the assay tubes in a dry ice/acetone bath prior to decanting the liquid ether layer. The ether layer was evaporated to dryness under N2, the residue dissolved in 65 μl chloroform:methanol (2:1 v/v), prior to separating ^14 C-5-HETE from other ^14 C-labeled compounds on silica gel impregnated glass fiber TLC plates utilizing an elution solvent of isoctane:methylethylketone:acetic acid (100:9:1 v/v). ^14 C-5-HETE was identified by its co-chromatography with a chemically synthesized standard. The radioactive peaks of the chromatogram were cut out and the radioactivity was quantitated by liquid scintillation counting. The amount of 5-HETE obtained per sample was expressed as the percent of total and was calculated in the basis of: [formula] in order to evaluate the effect of the test compounds, the mean percent inhibition of ^14 C-5-HETE production was calculated. The IC50 for a drug was determined from a linear regression analysis of a plot of the mean percent inhibition vs drug concentration.

[6] = system: LTE4-induced increase of vascular permeability in rat skin; assay: Rat Skin Permeability, In Vivo (LTE4-induced wheal); settings: LTE4 intradermal

inhibition at 1 µM ([1]; at 10^-6 M): 33%
pIC50 [2]: 5.10
Structure (SMILES): CC(C)c1ccc2ncn(/C=C/C(=O)NCCNCc3cccnc3)c(=O)c2c1

pIC50 [4]: < 6.00
Structure (SMILES): CC(C)c1ccc2ncn(/C=C/C(=O)NCCCCCCc3cccnc3)c(=O)c2c1

inhibition at 0.1 µM [1]: 31%
pIC50 [2]: 5.00
inhibition at 10 µM [5]: 56%
Structure (SMILES): CC(C)c1ccc2ncn(/C=C/C(=O)NCCSc3ccncc3)c(=O)c2c1

pIC50 [4]: < 6.00
inhibition at 0.1 µM [1]: 70%
Structure (SMILES): CC(C)c1ccc2ncn(/C=C/C(=O)NCCCCOc3cccnc3)c(=O)c2c1 [drawing 14]
inhibition at 10 µM ([2]; at 10^-5 M): 44%

pIC50 [2]: 5.30
inhibition at 10 µM [5]: 25%
Structure (SMILES): CC(C)c1ccc2ncn(/C=C/C(=O)NCCCCCCNc3ccccn3)c(=O)c2c1

pIC50 [4]: < 6.00
pIC50 [2]: 5.30
inhibition at 10 µM [5]: 10%
Structure (SMILES): CC(C)c1ccc2ncn(/C=C/C(=O)NCCCNc3cccnc3)c(=O)c2c1

More lines, now with the values behind:

Structure (SMILES): CC(C)c1ccc2ncn(/C=C/C(=O)NCCCCOc3cccnc3)c(=O)c2c1 [drawing 30]
Peak Hypertension (Δmm Hg) [3]: 19 ± 7 Δmm Hg
% Arrhythmias [3]: 0 ± 0%
Peak Hypotension (Δmm Hg) [3]: -42 ± 9 Δmm Hg

Structure (SMILES): CC(C)c1cc(C(C)C)c2ncn(/C=C/C(=O)NCCCCc3cccnc3)c(=O)c2c1
inhibition at 0.1 µM [1]: 51%
pIC50 [2]: 6.00

Structure (SMILES): CC(C)c1ccc2ncn(/C=C/C(=O)N(C)CCCCc3cccnc3)c(=O)c2c1
inhibition at 0.1 µM [1]: 48%
pIC50 [2]: 5.00

Structure (SMILES): CC(C)c1ccc2ncn(/C=C/C(=O)NCCCCn3ccnc3)c(=O)c2c1 [Compound C, N-[4-(1H-imidazol-1-yl)butyl]-(E)-3-[6-(1-methylethyl)-4-oxo-4H quinazolin-3-yl]-2-propenamide]
ED50 ([6]; iv, 0.5 h, i.v., read-out: I.D.50, skin wheal, i.v.): 17 mg/kg
ED50 ([6]; po, read-out: I.D.50, skin wheal, oral): 96 mg/kg

Structure (SMILES): CC(C)c1ccc2ncn(/C=C/C(=O)NCCCCn3ccnc3)c(=O)c2c1 [drawing 31]
Peak Hypertension (Δmm Hg) [3]: 10 ± 0 Δmm Hg
% Arrhythmias [3]: 0 ± 3%
Peak Hypotension (Δmm Hg) [3]: -45 ± 8 Δmm Hg

Structure (SMILES): CC(C)c1ccc2ncn(/C=C/C(=O)NCCCCc3cccnc3)c(=O)c2c1 [drawing 29]
Peak Hypertension (Δmm Hg) [3]: 21 ± 6 Δmm Hg
% Arrhythmias [3]: 1 ± 1%
Peak Hypotension (Δmm Hg) [3]: -45 ± 4 Δmm Hg

From patent US4599336A, “Derivatives of (E)-3-(4-oxo-4H-quinazolin-3-yl)-2-propenamide” (Hoffmann-La Roche Inc., priority 1983, dated 1986)
